Assay results from patent US12129221B2, “Difluoro phenyl amide RIP1 inhibitor” (SIRONAX LTD, priority 2018, dated 2024).
Read-outs that look alike come from different tables or passages of the source.

Columns and labels:
Human RIP1 kinase = Human RIP1 kinase (Homo sapiens (Human), UniProt Q13546); test: Human RIP1 kinase assay; format: biochemical; conditions: given as bound or range
Excerpt: (§1) Representative IC50 of hRIP1 Kinase Assay Correlated with Our IC50 of Cell Necrosis Assay: […]

ferroptosis = test: Ferroptosis inhibitor activity; format: cell-based; conditions: 1 uM threshold activity extrapolated
Excerpt: Ferroptosis Inhibitor Activity 1 Um Threshold Activity Extrapolated

necrosis = test: Necrosis inhibitory activity (cell necrosis / cell viability assay); format: cell-based
Excerpt: Necrosis Inhibitory Activity
as §1

[1] = Prodrug enhanced metabolic stability: hepatocyte (H); format: in vitro ADME; parameters: key: +, Extrapolated
Excerpt: (§2) Prodrug Enhanced Metabolic Stability: Liver Microsome (L), Hepatocyte (H) and PK

[2] = Prodrug enhanced metabolic stability: PK; format: in vivo; parameters: key: +, Extrapolated
Excerpt: as §2

[3] = Prodrug enhanced metabolic stability: liver microsome (L); format: in vitro ADME; parameters: key: +, Extrapolated
Excerpt: as §2

[4] = Necrosis Inhibitory Activity, given as range, read-out: EC50
[5] = cell necrosis assay, given as bound or range, read-out: Cell viability assay, EC50
[6] = Active Pro-drugs, read-out: EC50

Sequence of Human RIP1 kinase (Q13546 whole entry): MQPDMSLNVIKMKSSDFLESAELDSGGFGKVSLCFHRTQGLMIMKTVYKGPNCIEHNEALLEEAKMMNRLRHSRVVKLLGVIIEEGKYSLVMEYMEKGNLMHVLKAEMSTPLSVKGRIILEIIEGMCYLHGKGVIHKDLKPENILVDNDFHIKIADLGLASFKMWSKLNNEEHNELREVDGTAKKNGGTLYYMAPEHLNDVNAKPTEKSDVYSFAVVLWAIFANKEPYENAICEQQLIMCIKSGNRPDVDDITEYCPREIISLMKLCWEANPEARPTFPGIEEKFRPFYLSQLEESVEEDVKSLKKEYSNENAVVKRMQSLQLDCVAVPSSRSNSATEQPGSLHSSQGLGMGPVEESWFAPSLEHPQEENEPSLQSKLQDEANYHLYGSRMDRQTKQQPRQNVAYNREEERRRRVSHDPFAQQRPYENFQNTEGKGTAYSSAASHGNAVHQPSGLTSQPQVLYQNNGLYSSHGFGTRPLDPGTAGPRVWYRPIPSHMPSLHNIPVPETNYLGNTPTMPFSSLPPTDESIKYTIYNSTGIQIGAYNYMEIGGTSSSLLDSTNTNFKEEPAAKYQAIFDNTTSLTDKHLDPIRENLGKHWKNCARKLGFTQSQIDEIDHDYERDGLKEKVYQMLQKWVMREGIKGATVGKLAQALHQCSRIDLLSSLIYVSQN

SMILES	IC50 (Human RIP1 kinase) [nM]	EC50 (ferroptosis) [nM]	EC50 (necrosis; [4]) [nM]	EC50 (necrosis; [5]) [nM]	H [1]	PK [2]	EC50(nM) (necrosis; Active Pro-drugs)	L [3]	EC50 (necrosis; [6]) [nM]
CCC(C)(C)C(=O)N(O)Cc1ccc(Cl)c(F)c1 [Compound 16, N-(4-chloro-3-fluorobenzyl)-N-hydroxy-2,2-dimethylbutanamide]	< 100	1000 to 10000	1 to 1000	1 to 1000	–	–	–	–	–
CCC(C)(C)C(=O)N(O)Cc1ccc2c(c1)CCC2 [Compound 20, N-((2,3-dihydro-1H-inden-5-yl)methyl)-N-hydroxy-2,2-dimethylbutanamide]	< 100	1000 to 10000	1 to 1000	< 100	–	–	–	–	–
CCC(C)(C)C(=O)N(O)Cc1ccsc1 [Compound 23, N-hydroxy-2,2-dimethyl-N-(thiophen-3-ylmethyl)butanamide]	< 100	1000 to 10000	1 to 1000	1 to 1000	–	–	–	–	–
CCC(C)(C)C(=O)N(O)Cc1cnc(C)s1 [Compound 24, N-hydroxy-2,2-dimethyl-N-((2-methylthiazol-5-yl)methyl)butanamide]	100 to 1000	1000 to 10000	1 to 1000	1 to 1000	–	–	–	–	–
O=C(N(O)Cc1ccccc1)C1(C(F)(F)F)CCC1 [Compound 35, N-benzyl-N-hydroxy-1-(trifluoromethyl)cyclobutane-1-carboxamide]	100 to 1000	1000 to 10000	1 to 1000	1 to 1000	–	–	–	–	–
CCC(C)(C)C(=O)N(Cc1ccccc1)OC(=O)N1CCCCC1 [Compound 56, N-benzyl-2,2-dimethyl-N-((piperidine-1-carbonyl)oxy)butanamide]	–	–	–	–	+	+	weak	+	–
CCC(C)(C)C(=O)N(Cc1ccccc1)OC(=O)N1CCC(N2CCCCC2)CC1 [Compound 57, N-(([1,4′-bipiperidine]-1′-carbonyl)oxy)-N-benzyl-2,2-dimethylbutanamide]	–	–	–	–	+	+	weak	+	–
CCC(C)(C)C(=O)N(Cc1ccccc1)OC(=O)Oc1ccccc1 [Compound 58, N-benzyl-2,2-dimethyl-N-((phenoxycarbonyl)oxy)butanamide]	–	–	–	–	+	+	–	+	45.1
CCC(C)(C)C(=O)N(Cc1ccccc1)OC(=O)OCC(C)C [Compound 59, N-benzyl-N-((isobutoxycarbonyl)oxy)-2,2-dimethylbutanamide]	–	–	–	–	+	+	–	+	44.8
CCC(C)(C)C(=O)N(Cc1ccccc1)OC(=O)c1cccnc1 [Compound 60, N-benzyl-2,2-dimethyl-N-(nicotinoyloxy)butanamide]	–	–	–	–	+	+	–	+	83.5
[2H]CC([2H])C(C)(C)C(=O)N(Cc1cc(F)cc(F)c1)OC(=O)OCC (stereo not drawn) [Compound 61, N-(3,5-difluorobenzyl)-N-((ethoxycarbonyl)oxy)-2,2-dimethylbutanamide-3,4-d2]	–	–	–	–	+	+	–	+	128
[2H]CC([2H])C(C)(C)C(=O)N(Cc1cc(F)cc(F)c1)OC(=O)c1cccnc1 (stereo not drawn) [Compound 62, N-(3,5-difluorobenzyl)-2,2-dimethyl-N-(nicotinoyloxy)butanamide-3,4-d2]	–	–	–	–	+	+	–	+	45.3
CCC(C)(C)C(=O)N(Cc1ccccc1)OCOC(=O)C(C)(C)C [Compound 63, ((N-benzyl-2,2-dimethylbutanamido)oxy)methyl pivalate]	–	–	–	–	+	+	–	+	62.9
[2H]CC([2H])C(C)(C)C(=O)N(Cc1cc(F)cc(F)c1)OCOC(=O)C(C)(C)C (stereo not drawn) [Compound 64, ((N-(3,5-difluorobenzyl)-2,2-dimethylbutanamido-3,4-d2)oxy)methyl pivalate]	–	–	–	–	+	+	–	+	91.4
[2H]CC([2H])C(C)(C)C(=O)N(Cc1cc(F)cc(F)c1)OC(=O)OCCOC (stereo not drawn) [Compound 65, N-(3,5-difluorobenzyl)-N-(((2-methoxyethoxy)carbonyl)oxy)-2,2-dimethylbutanamide-3,4-d2]	–	–	–	–	+	+	–	+	37.2
[2H]CC([2H])C(C)(C)C(=O)N(Cc1cc(F)cc(F)c1)OC(=O)OCCOCCOC (stereo not drawn) [Compound 66, N-(3,5-difluorobenzyl)-N-(((2-(2-methoxyethoxy)ethoxy)carbonyl)oxy)-2,2-dimethylbutanamide-3,4-d2]	–	–	–	–	+	+	–	+	46
[2H]CC([2H])C(C)(C)C(=O)N(Cc1cc(F)cc(F)c1)OC(=O)OCCOCCOCCOC (stereo not drawn) [Compound 67, N-((2,5,8,11-tetraoxadodecanoyl)oxy)-N-(3,5-difluorobenzyl)-2,2-dimethylbutanamide-3,4-d2]	–	–	–	–	+	+	–	+	58.5

SMILES	IC50 (Human RIP1 kinase) [nM]	EC50 (ferroptosis) [nM]	EC50 (necrosis; [4]) [nM]	EC50 (necrosis; [5]) [nM]	H [1]	PK [2]	EC50(nM) (necrosis; Active Pro-drugs)	L [3]	EC50 (necrosis; [6]) [nM]
CCC(C)(C)C(=O)N(Cc1ccccc1)OP(=O)(N(C)C)N(C)C [Compound 68, N-benzyl-N-((bis(dimethylamino)phosphoryl)oxy)-2,2-dimethylbutanamide]	–	–	–	–	+	+	–	+	1620
CCC(C)(C)C(=O)N(Cc1ccccc1)OCOP(=O)(OCc1ccccc1)OCc1ccccc1 [Compound 69, dibenzyl (((N-benzyl-2,2-dimethylbutanamido)oxy)methyl) phosphate]	–	–	–	–	+	+	weak	+	–
CCC(C)(C)C(=O)N(Cc1ccccc1)OP(=O)(OC)OC [Compound 70, dimethyl ((N-benzyl-2,2-dimethylbutanamido)oxy)phosphonate]	–	–	–	–	+	+	–	+	1700
CCC(C)(C)C(=O)N(Cc1ccccc1)OP(=O)(O)O [Compound 71, ((N-benzyl-2,2-dimethylbutanamido)oxy)phosphonic acid]	–	–	–	–	+	+	–	+	28.7
CCC(C)(C)C(=O)N(Cc1ccccc1)OC(=O)CCCC[C@@H]1SC[C@@H]2NC(=O)N[C@@H]21 [Compound 72, N-benzyl-2,2-dimethyl-N-((5-((3aS,4S,6aR)-2-oxohexahydro-1H-thieno[3,4-d]imidazol-4-yl)pentanoyl)oxy)butanamide]	–	–	–	–	+	+	–	+	159
CCC(C)(C)C(=O)N(Cc1ccccc1)OCc1ccc(O)cc1 [Compound 73, N-benzyl-N-((4-hydroxybenzyl)oxy)-2,2-dimethylbutanamide]	–	–	–	–	+	+	–	+	489
CC(C)(C(=O)N(O)Cc1ccccc1)C(F)F [Compound 74, N-benzyl-3,3-difluoro-N-hydroxy-2,2-dimethylpropanamide]	–	1000 to 10000	1 to 1000	–	+	+	–	+	–
CC(C)(C(=O)N(O)Cc1cc(F)cc(F)c1)C(F)F [Compound 75, N-(3,5-difluorobenzyl)-3,3-difluoro-N-hydroxy-2,2-dimethylpropanamide]	–	1000 to 10000	1 to 1000	–	+	+	–	+	–
CC(C)(CCF)C(=O)N(O)Cc1cc(F)cc(F)c1 [Compound 76, N-(3,5-difluorobenzyl)-4-fluoro-N-hydroxy-2,2-dimethylbutanamide]	–	1000 to 10000	1000 to 10000	–	+	+	–	+	–
CCC(C)(C)C(=O)N(Cc1ccccc1)OC(=O)C(C)(C)C [Compound 77, N-benzyl-2,2-dimethyl-N-(pivaloyloxy)butanamide]	–	–	–	–	+	+	–	+	6830
CCC(C)(C)C(=O)N(Cc1ccccc1)OC(=O)[C@@H](NC(=O)OC(C)(C)C)C(C)C [Compound 79, tert-butyl (S)-(1-((N-benzyl-2,2-dimethylbutanamido)oxy)-3-methyl-1-oxobutan-2-yl)carbamate]	–	–	–	–	+	+	–	+	1430
CCC(C)(C)C(=O)N(Cc1ccccc1)OC(=O)[C@@H](N)C(C)C [Compound 80, N-((L-valyl)oxy)-N-benzyl-2,2-dimethylbutanamide]	–	–	–	–	+	+	–	+	24.2
CCC(C)(C)C(=O)N(Cc1ccccc1)OC(=O)[C@@H]1CCCN1C(=O)OC(C)(C)C [Compound 81, tert-butyl (S)-2-(((N-benzyl-2,2-dimethylbutanamido)oxy)carbonyl)pyrrolidine-1-carboxylate]	–	–	–	–	+	+	–	+	3250
CCC(C)(C)C(=O)N(Cc1ccccc1)OC(=O)CN(C)C [Compound 82, N-benzyl-N-((dimethylglycyl)oxy)-2,2-dimethylbutanamide]	–	–	–	–	+	+	–	+	116
CCC(C)(C)C(=O)N(Cc1ccccc1)OC(=O)[C@@H](N)CO [Compound 83, N-((L-seryl)oxy)-N-benzyl-2,2-dimethylbutanamide]	–	–	–	–	+	+	–	+	898
CCOC(=O)ON(Cc1cc(F)cc(F)c1)C(=O)C(C)(C)CC [Compound 87, N-(3,5-difluorobenzyl)-N-((ethoxycarbonyl)oxy)-2,2-dimethylbutanamide]	–	–	–	–	+	+	–	+	67.8
